Measurements as given in ChEMBL document CHEMBL2311455, “Combining QSAR classification models for predictive modeling of human monoamine oxidase inhibitors” (Eur J Med Chem, 2013).

Legend:
[1] = molecular target: T1, Amine oxidase [flavin-containing] B (Homo sapiens, UniProt P27338); experiment: Inhibition of human recombinant MAOB
T1 sequence (P27338 whole entry): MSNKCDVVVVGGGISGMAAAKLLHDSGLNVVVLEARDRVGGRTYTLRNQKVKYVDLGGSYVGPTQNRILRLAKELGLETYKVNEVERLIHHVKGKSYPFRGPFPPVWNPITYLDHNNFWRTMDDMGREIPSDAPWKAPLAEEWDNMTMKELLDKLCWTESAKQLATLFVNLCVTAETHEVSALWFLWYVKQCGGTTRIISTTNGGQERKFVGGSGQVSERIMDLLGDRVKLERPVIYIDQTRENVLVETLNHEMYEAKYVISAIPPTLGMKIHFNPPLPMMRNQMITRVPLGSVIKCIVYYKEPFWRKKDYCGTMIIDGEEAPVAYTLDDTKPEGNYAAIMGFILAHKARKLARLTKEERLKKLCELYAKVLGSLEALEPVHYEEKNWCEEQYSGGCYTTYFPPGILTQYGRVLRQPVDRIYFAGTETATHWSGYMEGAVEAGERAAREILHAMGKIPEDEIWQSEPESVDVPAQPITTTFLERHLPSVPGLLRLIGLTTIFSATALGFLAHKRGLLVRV

[2] = organism: Homo sapiens; experiment: Selectivity index, difference in pIC50 for human recombinant MAOB and pIC50 for human recombinant MAOA
[3] = molecular target: T2, Amine oxidase [flavin-containing] A (Homo sapiens, UniProt P21397); experiment: Inhibition of human recombinant MAOA
T2 sequence (P21397 whole entry): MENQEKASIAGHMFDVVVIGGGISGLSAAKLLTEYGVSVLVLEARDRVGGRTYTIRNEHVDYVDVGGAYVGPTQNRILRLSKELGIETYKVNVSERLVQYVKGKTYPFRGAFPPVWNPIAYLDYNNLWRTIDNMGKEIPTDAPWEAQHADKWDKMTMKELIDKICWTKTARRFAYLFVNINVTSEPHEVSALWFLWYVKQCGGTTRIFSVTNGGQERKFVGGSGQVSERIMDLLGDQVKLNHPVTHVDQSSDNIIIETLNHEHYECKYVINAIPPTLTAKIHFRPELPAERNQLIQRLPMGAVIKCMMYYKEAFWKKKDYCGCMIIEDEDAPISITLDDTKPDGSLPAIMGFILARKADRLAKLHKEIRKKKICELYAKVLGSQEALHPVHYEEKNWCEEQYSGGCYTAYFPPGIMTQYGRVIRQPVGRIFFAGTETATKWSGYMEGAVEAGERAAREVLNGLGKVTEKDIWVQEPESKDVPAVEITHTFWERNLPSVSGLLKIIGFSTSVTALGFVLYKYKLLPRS

SMILES	IC50 [1]	pSI [2]	IC50 [3]
CCCOC(=O)c1coc2ccccc2c1=O	5.62 µM	> 1.25	> 100 µM
CCOC(=O)c1cc(=O)c2ccccc2o1	> 100 µM	0	> 100 µM
CCOC(=O)c1coc2ccccc2c1=O	1.91 µM	> 1.72	> 100 µM
CN(C(=O)c1cc(=O)c2ccccc2o1)c1ccccc1	> 100 µM	0	> 100 µM
O=c1c(CO)coc2ccccc12	38 µM	> 0.42	> 100 µM
O=C(O)c1coc2ccc(Cl)cc2c1=O	> 1000 µM	< -1	> 100 µM
CCOC(=O)c1cc(=O)c2cc(Cl)ccc2o1	38.9 µM	> 0.41	> 100 µM
O=c1cc(CO)oc2ccccc12	> 100 µM	0	> 100 µM
O=C(O)c1cc(=O)c2cc(Cl)ccc2o1	> 1000 µM	< -1	> 100 µM
O=C(Nc1ccc(O)c(O)c1)c1cc(=O)c2ccccc2o1		-1.15	
CCCOC(=O)c1cc(=O)c2ccccc2o1	35.5 µM	> 0.45	> 100 µM
